Like-named read-outs stand apart in the source and are kept apart here.
How the values were obtained:
[1] = molecular target: Human DGKα(9-727) (Homo sapiens (Human), UniProt P23743); test: biochemical; conditions: Table A, liposome (LIPGLO) assay
[2] = tested on: human venous whole blood, CD8 positive population (pERK); test: DGK human whole blood pERK assay; assay type: cell-based; conditions: Homo sapiens, CD8 positive
Summary of the method: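 Heparinized whole blood from healthy donors preincubated with compound 1 hour at 37° C. Stimulation used anti-CD3 at 1 μg/mL final plus cross-linking goat anti-mouse IgG for 15 minutes. Flow cytometry scored percentage pERK-positive cells among CD8-positive cells.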

[3] = molecular target: human DGKζ (Homo sapiens (Human), UniProt Q13574); test: biochemical; assay type: biochemical; conditions: liposome (LIPGLO) assay
[4] = tested on: Human venous whole blood (IFN-γ); test: Human whole blood IFN-γ assay; assay type: cell-based
Protocol: Assay 10: Human Whole Blood IFN-γ Assay
Human venous whole blood (22.5 μL per well), obtained from healthy donors, was pre-treated with compounds for one hour at 37° C. in a humidified 95% air/5% CO2 incubator. The blood was stimulated with 2.5 μL anti-human CD3 and anti-CD28 mAb at a final concentration of 1 μg/mL each for 24 hours at 37° C. IFN-γ in the supernatants was measured using AlphLISA kit (Cat #AL217).

[5] = molecular target: DGKα (Homo sapiens (Human), UniProt P23743); test: biochemical; assay type: biochemical; conditions: liposome (LIPGLO) assay; read-out: DGKα LIPGLO IC50
[6] = human whole blood, CD8 positive population, anti-CD3 stimulation, top concentration 20 μM, read-out: DGK HWB (human whole blood pERK)
[7] = Homo sapiens, human whole blood IFN-γ, read-out: INFg Whole Blood

Chain of human DGKζ (Q13574 whole entry, looked up): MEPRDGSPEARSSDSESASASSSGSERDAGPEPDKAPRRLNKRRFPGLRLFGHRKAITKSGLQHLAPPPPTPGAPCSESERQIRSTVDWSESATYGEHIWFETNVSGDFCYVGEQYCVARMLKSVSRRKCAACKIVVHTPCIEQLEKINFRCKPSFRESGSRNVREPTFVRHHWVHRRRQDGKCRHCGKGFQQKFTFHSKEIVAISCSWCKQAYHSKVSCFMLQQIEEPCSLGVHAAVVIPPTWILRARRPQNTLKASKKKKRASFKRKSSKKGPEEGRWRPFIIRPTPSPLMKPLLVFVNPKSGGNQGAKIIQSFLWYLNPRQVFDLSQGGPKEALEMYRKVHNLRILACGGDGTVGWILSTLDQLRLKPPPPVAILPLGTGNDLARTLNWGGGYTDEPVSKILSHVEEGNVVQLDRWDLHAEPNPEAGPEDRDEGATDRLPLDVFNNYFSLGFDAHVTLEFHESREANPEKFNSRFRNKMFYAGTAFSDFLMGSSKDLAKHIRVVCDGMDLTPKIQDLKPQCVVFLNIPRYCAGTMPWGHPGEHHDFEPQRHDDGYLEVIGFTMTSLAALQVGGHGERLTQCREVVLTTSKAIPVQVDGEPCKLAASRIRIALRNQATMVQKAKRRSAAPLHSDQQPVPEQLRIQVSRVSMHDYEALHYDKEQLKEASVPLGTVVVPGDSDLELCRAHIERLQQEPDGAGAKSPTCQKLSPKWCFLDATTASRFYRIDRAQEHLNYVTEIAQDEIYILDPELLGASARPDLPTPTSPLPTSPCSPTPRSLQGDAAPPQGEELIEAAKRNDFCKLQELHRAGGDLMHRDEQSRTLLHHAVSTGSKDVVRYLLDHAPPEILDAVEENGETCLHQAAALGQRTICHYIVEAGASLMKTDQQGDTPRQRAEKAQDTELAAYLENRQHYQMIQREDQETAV
Chain of Human DGKα(9-727) (P23743 whole entry, looked up): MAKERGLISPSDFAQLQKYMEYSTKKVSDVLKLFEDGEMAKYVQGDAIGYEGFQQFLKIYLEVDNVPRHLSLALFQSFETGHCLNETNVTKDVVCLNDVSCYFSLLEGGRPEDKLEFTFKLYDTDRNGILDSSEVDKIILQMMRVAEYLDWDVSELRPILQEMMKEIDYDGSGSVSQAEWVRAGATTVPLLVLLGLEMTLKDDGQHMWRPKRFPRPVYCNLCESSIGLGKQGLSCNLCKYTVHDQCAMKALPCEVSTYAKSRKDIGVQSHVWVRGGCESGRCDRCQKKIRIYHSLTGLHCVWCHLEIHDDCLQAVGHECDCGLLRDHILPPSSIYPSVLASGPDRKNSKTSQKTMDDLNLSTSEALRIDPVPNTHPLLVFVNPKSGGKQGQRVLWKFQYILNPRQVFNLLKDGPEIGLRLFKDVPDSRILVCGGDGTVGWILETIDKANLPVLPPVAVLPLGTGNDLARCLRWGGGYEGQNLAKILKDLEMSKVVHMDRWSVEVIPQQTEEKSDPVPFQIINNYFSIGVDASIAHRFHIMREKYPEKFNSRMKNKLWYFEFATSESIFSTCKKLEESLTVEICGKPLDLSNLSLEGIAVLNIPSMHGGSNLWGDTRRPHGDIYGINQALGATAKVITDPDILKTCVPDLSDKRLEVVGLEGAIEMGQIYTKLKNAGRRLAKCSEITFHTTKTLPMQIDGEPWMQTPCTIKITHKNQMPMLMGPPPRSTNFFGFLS
Chain of DGKα (P23743 whole entry, looked up): as above

Compound	IC50 ([1]; read-out: DGKα) [µM]	IC50 ([3]; Table A, read-out: DGKζ) [µM]	other results
C[C@H]1CN(c2cc(=O)n(C)c3ccc(C#N)nc23)[C@@H](C)CC1N(C)c1ccc(C(F)(F)F)cc1 (single isomer, unassigned) [Example 318]	130	–	EC50 ([2]; human whole blood pERK, read-out: DGK HWB): 20 µM
CO[C@@H]1CN(c2cc(=O)n(C)c3ccc(C#N)nc23)CC[C@H]1Oc1cccc(C(F)(F)F)c1 (single isomer, unassigned) [Example 262, (±)-trans-8-(3-methoxy-4-(3-(trifluoromethyl)phenoxy)piperidin-1-yl)-5-methyl-6-oxo-5,6-dihydro-1,5-naphthyridine-2-carbonitrile]	3.7	15	–
CCO[C@H]1CN(c2cc(=O)n(C)c3ccc(C#N)nc23)CC[C@@H]1OCc1ccc(OC(C)C)cn1 [Example 383, 8-((3S,4S)-3-ethoxy-4-((5-isopropoxypyridin-2-yl)methoxy)piperidin-1-yl)-5-methyl-6-oxo-5,6-dihydro-1,5-naphthyridine-2-carbonitrile]	–	–	IC50 ([1]; read-out: DGKα LIPGLO IC50): 6.1 µM; EC50 [2, 6]: 20 µM
CC(C)Oc1ccc(O[C@H]2CCN(c3cc(=O)n(C)c4ccc(C#N)nc34)C[C@@H]2O)nc1 (single isomer, unassigned) [Example 268, (±)-trans-8-(3-hydroxy-4-((5-isopropoxypyridin-2-yl)oxy)piperidin-1-yl)-5-methyl-6-oxo-5,6-dihydro-1,5-naphthyridine-2-carbonitrile]	1.3	17	–
Cn1c(=O)nc(N2CC[C@@H](Oc3cccc(C(F)(F)F)c3)[C@H](O)C2)c2nc(Cl)ccc21 (racemic) [Example 271, (+/−)-trans-6-chloro-4-(3-hydroxy-4-(3-(trifluoromethyl)phenoxy)piperidin-1-yl)-1-methylpyrido[3,2-d]pyrimidin-2(1H)-one]	10	28	EC50 [4, 7]: 20 µM
C[C@H]1CN(c2cc(=O)n(C)c3ccc(C#N)nc23)[C@@H](C)CC1N(C)c1ccc(C(F)(F)F)cc1 (single isomer, unassigned) [Example 319]	61	130	–
COc1ccc(NC2C[C@H](C)N(c3cc(=O)n(C)c4ccc(C#N)nc34)C[C@H]2C)nc1 (single isomer, unassigned) [Example 280]	0.38	170	EC50 ([4]; human whole blood IFN-γ, read-out: INFg Whole Blood): 20 µM
CCO[C@H]1CN(c2cc(=O)n(C)c3ccc(C#N)nc23)CC[C@@H]1OCc1ccc(OC(C)C)cn1 (single isomer, unassigned) [Example 384]	–	–	IC50 ([1]; read-out: DGKα LIPGLO IC50): 0.82 µM; EC50 [2, 6]: 4 µM
CC(C)Oc1ccc(O[C@H]2CCN(c3cc(=O)n(C)c4ccc(C#N)nc34)C[C@@H]2O)nc1 (single isomer, unassigned) [Example 267, (±)-trans-8-(3-hydroxy-4-((5-isopropoxypyridin-2-yl)oxy)piperidin-1-yl)-5-methyl-6-oxo-5,6-dihydro-1,5-naphthyridine-2-carbonitrile]	0.26	10	EC50 [4, 7]: 17 µM
CC[C@@H]1CN(c2cc(=O)n(C)c3ccc(C#N)nc23)[C@@H](C)C[C@@H]1Oc1cccc(C(F)(F)F)c1 [Example 308, 8-((2S,4S,5R)-5-ethyl-2-methyl-4-(3-(trifluoromethyl)phenoxy)piperidin-1-yl)-5-methyl-6-oxo-5,6-dihydro-1,5-naphthyridine-2-carbonitrile]	4.3	3.1	–
CC[C@@H]1CN(c2cc(=O)n(C)c3ccc(C#N)nc23)CC[C@H]1Oc1cccc(C(C)C)c1 (single isomer, unassigned) [Example 139]	–	–	IC50 [5]: 0.1 µM; IC50 ([3]; read-out: DGKζ LIPGLO IC50): 1.7 µM; EC50 ([4]; read-out: INFg Whole Blood Normalized Agonist EC50, human whole blood, anti-CD3 plus anti-CD28, 24 hours): 1.5 µM; IC50 ([2]; read-out: DGK HWB pERK IC50): 5.3 µM
Cn1c(=O)cc(N2CC[C@H](Oc3cccc(C(F)(F)F)c3)[C@@H](O)C2)c2nc(C#N)ccc21 (racemic) [Example 259, (±)-trans-8-(3-hydroxy-4-(3-(trifluoromethyl)phenoxy)piperidin-1-yl)-5-methyl-6-oxo-5,6-dihydro-1,5-naphthyridine-2-carbonitrile]	1.1	150	EC50 [4, 7]: 20 µM
CO[C@@H]1CN(c2nc(=O)n(C)c3ccc(C#N)nc23)CC[C@H]1Oc1cccc(C(F)(F)F)c1 (single isomer, unassigned) [Example 276]	1	2	–

Reference: patent US11964973B2 (priority 2019, dated 2024)
